In series [1] the test system is green monkey kidney cells. In words: Cytotoxic effect of ribavirin in cell culture. It counts as cell-based.
Procedure: (§1) In vitro: Studies have been conducted utilized a bovine kidney cell monolayer infected with a strain of WNV isolated from mosquitoes and birds in Connecticut. Cytotoxicity was assayed by measuring the decrease in release of lactate dehydrogenase from infected cells, as compared with uninfected controls.
For series [2] the following is noted: after 600 mg given every 6 hours; cited from earlier work.
Series [3] has as its system mice. As to conditions: cited from earlier work.
The conditions of series [4]: cited from earlier work.
The test system of series [5] is mice. The series is described as follows: Mutagenicity of ribavirin in mice. As to conditions: from mice.
For a further series, the system named is West Nile virus (WNV). The series is described as follows: Suppression of West Nile virus in Vero cell culture, colorimetric assay of cellular lactic dehydrogenase (O.D. 490). The settings on record: for Mean O.D. 490 value: Vero cells.

Each structure is given as a SMILES string. Where only a bound is given, the exact number is not on record here.

Procedure for West Nile virus (WNV): The vertical axis represents a colorimetric assay of cellular lactic dehydrogenase which is directly proportional to cell viability and proliferation.
as §1

In the case of `NC(=O)c1ncn([C@@H]2O[C@H](CO)[C@@H](O)[C@H]2O)n1` [Ribavirin, 1-β-D-ribofuranosyl-1H-1,2,4-triazole-3-carboxamide, reference compound], the “concentration at which a cytotoxic effect occurred” value in series [1] fell in the range of 600 to 1000 µM. In addition, the “concentration in human serum” value in series [2] was 1000 ng/mL. For the same compound, the “dose known to be mutagenic” value with mice [3] is 20 to 200 mg/kg. In addition, the “dose at which inhibition of erythrocyte release from bone marrow occurs” value in series [4] (high doses) is reported as 30 mg/kg. The “reduction from baseline hematocrit” value in series [4] (human, in vivo) was at most 20%. Besides, the “reduction in baseline hemoglobin” value in series [4] (human, in vivo) was 10-12%. In series [4] (human, in vivo), the “toxicity (in words)” value is recorded as “hemolysis”. In addition, the Bioavailability result in series [4] (patients with renal dysfunction) was “increased”. Also, the teratogenicity result in series [4] (should not be given during, or within 6 months of pregnancy) is reported as “teratogenic”. Further, the “estimated human equivalent of mutagenic dose” value in the series with mice [5] was 1.67 to 16.7 mg/kg. In addition, the “Mean O.D. 490 value” was determined as 0.72c with West Nile virus (WNV) (Ribavirin 0.2 uM applied 2 hours prior to infection of cells with WNV); 1.11a in the series with West Nile virus (WNV) (Ribavirin 0.3 uM applied 2 hours prior to infection of cells with WNV); 1.24b in the series on West Nile virus (WNV) (Ribavirin 0.4 uM applied 2 hours prior to infection of cells with WNV); 1.24b with West Nile virus (WNV) (Ribavirin 0.5 uM applied 2 hours prior to infection of cells with WNV); 1.06a in the series on West Nile virus (WNV) (Ribavirin 0.6 uM applied 2 hours prior to infection of cells with WNV). Besides, the “concentration protective or prophylactic against infection” value with West Nile virus (WNV) (WNV infection of bovine kidney cells in vitro) came to 400 µM. In addition, in the series on West Nile virus (WNV) (applied after infection), the “concentration that suppressed viral replication” value was 500 µM. Also, the “activity in vitro against WNV infection” value with West Nile virus (WNV) (bovine kidney cells) was “active”. Besides, the “protective concentration expressed as mass concentration” value in the series on West Nile virus (WNV) (equivalent of 400 uM) is “approximately 100 ug/ml”.

Values taken from patent US6946125B2, “Methods of treating West Nile virus infection” (The New York Hospital Medical Center of Queens, priority 2000, dated 2005).
